Experimental data taken from ChEMBL document CHEMBL1201862, “PubChem BioAssay data set” (2004).
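Interpolation was linear, between the two tested concentrations surrounding the appropriate level; five concentrations were tested over 48 hours in 96-well plates. GI50: concentration for 50% inhibition of growth.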 Activity calls are given as the source filed them. No stated cut-off is given here; in the data, active = GI50 up to about 1.1 µM and inactive = higher.

Key:
Assay in all cases: NCI anticancer screen, dose series, 48 h
HOP-62 = test system: HOP-62
HCT-15 = test system: HCT-15
UACC-62 = test system: UACC-62
Hs-578T = test system: Hs-578T
IGROV-1 = test system: IGROV-1
MDA-MB-231 = test system: MDA-MB-231
EKVX = test system: EKVX
NCI-H460 = test system: NCI-H460
SF-268 = test system: SF-268
T47D = test system: T47D
SNB-19 = test system: SNB-19
HOP-92 = test system: HOP-92
MCF7 = test system: MCF7
ACHN = test system: ACHN
NCI/ADR-RES = test system: NCI/ADR-RES
SR = test system: SR
RPMI-8226 = test system: RPMI-8226
OVCAR-4 = test system: OVCAR-4
MDA-MB-435 = test system: MDA-MB-435
SNB-75 = test system: SNB-75

SMILES | GI50 (HOP-62) | GI50 (HCT-15) | GI50 (UACC-62) | GI50 (Hs-578T) | GI50 (IGROV-1) | GI50 (MDA-MB-231) | GI50 (EKVX) | GI50 (NCI-H460) | GI50 (SF-268) | GI50 (T47D) | GI50 (SNB-19) | GI50 (HOP-92) | GI50 (MCF7) | GI50 (ACHN) | GI50 (NCI/ADR-RES) | GI50 (SR) | GI50 (RPMI-8226) | GI50 (OVCAR-4) | GI50 (MDA-MB-435) | GI50 (SNB-75)
CCCCCCCCCCCCCCNC(=O)CCC(NC(=O)c1ccc(N(C)Cc2cnc3nc(N)nc(N)c3n2)cc1)C(=O)NCCCCCCCCCCCCCC (stereo not given) | 9.29 µM (inactive) | 2.52 µM | 2.63 µM (inactive) | 8.39 µM (inactive) | 7.14 µM (inactive) | 8.73 µM (inactive) | 23.9 µM (inactive) | 0.363 µM (active) | 2.49 µM (inactive) | 8.51 µM (inactive) | 17.1 µM (inactive) | 14.8 µM (inactive) | 4.48 µM (inactive) | 6.38 µM (inactive) | 39.8 µM (inactive) | 0.139 µM (active) | 3.07 µM (inactive) | 12.5 µM (inactive) | 0.207 µM (active) | 14.3 µM (inactive)
NNc1nc2ccccc2c(=O)n1NC(=O)C(=O)Nc1cccc(C(F)(F)F)c1 | > 100 µM (inactive) | > 100 µM | > 100 µM (inactive) | > 100 µM (inactive) | 47.6 µM (inactive) | > 100 µM (inactive) | > 100 µM (inactive) | > 100 µM (inactive) | > 100 µM (inactive) | > 100 µM (inactive) | > 100 µM (inactive) | > 100 µM (inactive) | > 100 µM (inactive) | > 100 µM (inactive) | > 100 µM (inactive) | > 10 µM (inactive) | > 100 µM (inactive) | > 100 µM (inactive) | > 100 µM (inactive) | > 100 µM (inactive)
COC(=O)c1c(CC(Cc2ccc3c(c2)CCCC3)C(=O)O)ccc2c1CCCC2 (stereo not given) | 22.8 µM (inactive) | 18 µM | 22.4 µM (inactive) | 25.8 µM (inactive) | 36.8 µM (inactive) | 27.9 µM (inactive) | 25.2 µM (inactive) | 21.9 µM (inactive) | 37.1 µM (inactive) | 33.4 µM (inactive) | 40.7 µM (inactive) | 25.2 µM (inactive) | 31.6 µM (inactive) | 34 µM (inactive) | 17.9 µM (inactive) | 30.5 µM (inactive) | 27.6 µM (inactive) | 34.5 µM (inactive) | 34.2 µM (inactive) | 36.4 µM (inactive)
CCC(=O)Oc1c2ccsc2c(OC(=O)CC)c2ccsc12 | 0.849 µM (active) | 0.318 µM | 0.217 µM (active) | 0.372 µM (active) | 1.95 µM (inactive) | 0.232 µM (active) | 0.871 µM (active) | 1.89 µM (inactive) | 0.518 µM (active) | 1.56 µM (inactive) | 0.54 µM (active) | 1.42 µM (inactive) | 1.45 µM (inactive) | 0.419 µM (active) | 0.279 µM (active) | 0.297 µM (active) | 0.452 µM (active) | 0.948 µM (active) | 0.0604 µM (active) | 0.184 µM (active)
C[C@H](NC(=O)c1ccc(CNC(=O)/C=C/c2cccc(Oc3ccccc3)c2)cc1)c1ccccc1 | 36.9 µM (inactive) | > 100 µM | > 100 µM (inactive) | 49.9 µM (inactive) | > 100 µM (inactive) | > 100 µM (inactive) | > 100 µM (inactive) | > 100 µM (inactive) | > 100 µM (inactive) | 98.2 µM (inactive) | 37.8 µM (inactive) | > 100 µM (inactive) | > 100 µM (inactive) | 57.9 µM (inactive) | > 100 µM (inactive) | 26.8 µM (inactive) | > 100 µM (inactive) | 83.2 µM (inactive) | > 100 µM (inactive) | 15.2 µM (inactive)
CN(C)Cc1c[nH]c2ncnc(O)c12 | > 100 µM (inactive) | 35.5 µM | 20.9 µM (inactive) | > 100 µM (inactive) | 35 µM (inactive) | 72.4 µM (inactive) | 98.2 µM (inactive) | 26.2 µM (inactive) | 73.1 µM (inactive) | 33.1 µM (inactive) | 70.1 µM (inactive) | 38.9 µM (inactive) | 24.7 µM (inactive) | 38 µM (inactive) | 62.7 µM (inactive) | 27.1 µM (inactive) | 20.6 µM (inactive) | 32.8 µM (inactive) | 31.8 µM (inactive) | 33.3 µM (inactive)
CN1CCc2ccccc2C1Cc1ccccc1NC(=O)c1sc2ccccc2c1Cl (stereo not given) | > 100 µM (inactive) | > 100 µM | > 100 µM (inactive) | > 100 µM (inactive) | > 100 µM (inactive) | > 100 µM (inactive) | > 100 µM (inactive) | > 100 µM (inactive) | > 100 µM (inactive) | > 100 µM (inactive) | > 100 µM (inactive) | > 100 µM (inactive) | > 100 µM (inactive) | > 100 µM (inactive) | > 100 µM (inactive) | > 100 µM (inactive) | > 100 µM (inactive) | > 100 µM (inactive) | > 100 µM (inactive) | > 100 µM (inactive)
O=C1C(/N=N/c2ccc(-c3nc4ccccc4[nH]3)cc2)NC(=S)N1c1ccccc1 (stereo not given) | > 100 µM (inactive) | 18.2 µM | > 100 µM (inactive) | > 100 µM (inactive) | 40.2 µM (inactive) | > 100 µM (inactive) | > 100 µM (inactive) | 56.9 µM (inactive) | > 100 µM (inactive) | 18.8 µM (inactive) | > 100 µM (inactive) | > 100 µM (inactive) | 10.5 µM (inactive) | > 100 µM (inactive) | > 100 µM (inactive) | 0.671 µM (active) | 22.1 µM (inactive) | 61.9 µM (inactive) | 67.3 µM (inactive) | 93.1 µM (inactive)
NS(=O)(=O)OCCCCCCCOS(N)(=O)=O | 142 µM (inactive) | 349 µM | 61.4 µM (inactive) | 527 µM (inactive) | 376 µM (inactive) | 445 µM (inactive) | 272 µM (inactive) | 23 µM (inactive) | 130 µM (inactive) | 246 µM (inactive) | 275 µM (inactive) | 215 µM (inactive) | 101 µM (inactive) | 64.9 µM (inactive) | 273 µM (inactive) | 31.6 µM (inactive) | 296 µM (inactive) | 409 µM (inactive) | 410 µM (inactive) | 94.8 µM (inactive)
C=CC(=O)N1C/C(=C\c2ccc(F)cc2)C(=O)/C(=C/c2ccc(F)cc2)C1 | 0.516 µM (active) | 0.166 µM | 0.142 µM (active) | 0.235 µM (active) | 0.437 µM (active) | 0.461 µM (active) | 0.887 µM (active) | 0.593 µM (active) | 0.206 µM (active) | 4.57 µM (inactive) | 0.944 µM (active) | 3.03 µM (inactive) | 0.168 µM (active) | 0.259 µM (active) | 0.365 µM (active) | 0.0491 µM (active) | 0.0318 µM (active) | 0.339 µM (active) | 0.299 µM (active) | 0.35 µM (active)
